Measured values reported in US20250197394A1, “ANTIBACTERIALS BASED ON MONOCYCLIC FRAGMENTS COUPLED TO AMINOPIPERIDINE NAPHTHYRIDINE SCAFFOLD” (UNIVERZA V LJUBLJANI, priority 2019, published 2025).
In brackets after ≈: the same amount, converted by molar mass.

Key:
[1] = target: Staphylococcus aureus DNA gyrase (Staphylococcus aureus, UniProt P0A0K8+P20831); experiment: biochemical
[2] = tested on: HUVEC (ATCC) cell line; experiment: Cytotoxicity, metabolic cell activity (CellTiter 96 AQueous One), HUVEC; type: cell-based; conditions: two independent experiments; for mean percentage of metabolic activity of treated cells, HUVEC 1 μM: compound 1 μM; for mean percentage of metabolic activity of treated cells, HUVEC 50 μM: compound 50 μM
Protocol: (§1) Cytotoxicity was assessed in assay measuring metabolic cell activity performed on HepG2 (ATCC) and HUVEC (ATCC) cell lines according to the protocol of CellTiter 96® AQueous One Solution Cell Proliferation Assay 2018, Promega, USA, 2001. The method involved absorbance measurements after the treatment of cells with compounds at concentrations 1 μM and 50 μM.
(§2) The results are given as the mean percentage of metabolic activity of treated cells from two independent experiments and are represented in Table 3.

[3] = tested on: HepG2 (ATCC) cell line; experiment: Cytotoxicity, metabolic cell activity (CellTiter 96 AQueous One), HepG2; type: cell-based; conditions: two independent experiments; for mean percentage of metabolic activity of treated cells, HepG2 1 μM: HepG2, compound 1 μM; for mean percentage of metabolic activity of treated cells, HepG2 50 μM: HepG2, compound 50 μM
Protocol: as §1, §2

[4] = tested on: E. faecalis DRK 057; experiment: MIC broth microdilution, E. faecalis; type: cell-based; conditions: Enterococcus faecalis, DRK057, 20 hours of incubation
Protocol: (§3) Minimal inhibitory concentrations were determined by the broth microdilution method in 96-wells plate format following the Clinical and Laboratory Standards Institute (CLSI) guidelines given in “Methods for Dilution Antimicrobial Susceptibility Tests for Bacteria That Grow Aerobically, Approved Standard, 10th Edition, CLSI document M07-A10, Wayne, PA: Clinical and Laboratory Standards Institute, USA, 2015” and European Committee on Antimicrobial Susceptibility Testing (EUCAST) recommendations given in “The European Committee on Antimicrobial Susceptibility Testing, Breakpoint tables for interpretation of MICs and zone diameters, Version 5.0, 2015”. All exemplified compounds were tested on several Gram-positive (S. aureus, methicillin-resistant Staphylococcus aureus (MRSA), methicillin-resistant
(§4) Staphylococcus schleiferi subspecies coagulans, methicillin-resistant Staphylococcus pseudintermedius
(§5) (S-48, S-84, S-35, S-52, S-40 and S-51), Streptococcus agalactiae and Enterococcus faecalis) and Gram-negative bacteria (E. coli, Salmonella Alachua and Pseudomonas aeruginosa).
(§6) The MICs were visually determined as the lowest compound concentration inhibiting bacterial growth after 20 hours of incubation time. […] MIC values are represented in Table 2.

[5] = tested on: methicillin-resistant Staphylococcus pseudintermedius S-35; experiment: MIC broth microdilution, MRSP S-35; type: cell-based; conditions: 20 hours of incubation
Protocol: as §3, §4, §5, §6

[6] = tested on: methicillin-resistant Staphylococcus pseudintermedius S-51; experiment: MIC broth microdilution, MRSP S-51; type: cell-based; conditions: 20 hours of incubation
Protocol: as §3, §4, §5, §6

[7] = tested on: methicillin-resistant Staphylococcus pseudintermedius S-40; experiment: MIC broth microdilution, MRSP S-40; type: cell-based; conditions: 20 hours of incubation
Protocol: as §3, §4, §5, §6

[8] = tested on: P. aeruginosa RDK 184; experiment: MIC broth microdilution, P. aeruginosa; type: cell-based; conditions: Pseudomonas aeruginosa, RDK184, 20 hours of incubation
Protocol: as §3, §4, §5, §6

[9] = tested on: methicillin-resistant Staphylococcus pseudintermedius S-48; experiment: MIC broth microdilution, MRSP S-48; type: cell-based; conditions: 20 hours of incubation
Protocol: as §3, §4, §5, §6

[10] = tested on: methicillin-resistant Staphylococcus pseudintermedius S-52; experiment: MIC broth microdilution, MRSP S-52; type: cell-based; conditions: 20 hours of incubation
Protocol: as §3, §4, §5, §6

[11] = tested on: methicillin-resistant Staphylococcus pseudintermedius S-84; experiment: MIC broth microdilution, MRSP S-84; type: cell-based; conditions: 20 hours of incubation
Protocol: as §3, §4, §5, §6

[12] = tested on: methicillin-resistant Staphylococcus schleiferi subspecies coagulans; experiment: MIC broth microdilution, MRSS; type: cell-based; conditions: 20 hours of incubation
Protocol: as §3, §4, §5, §6

[13] = tested on: C. jejuni RDK-135; experiment: MIC broth microdilution, C. jejuni; type: cell-based; conditions: Campylobacter jejuni, RDK135, 20 hours of incubation
Protocol: as §3, §6

[14] = tested on: methicillin-resistant Staphylococcus aureus (MRSA); experiment: MIC broth microdilution, MRSA; type: cell-based; conditions: 20 hours of incubation
Protocol: as §3, §4, §5, §6

[15] = target: T1, Escherichia coli DNA gyrase (Escherichia coli, UniProt P0AES4+P0AES6); experiment: Gyrase Supercoiling High Throughput Plate assay (E. coli); type: biochemical; conditions: mean of two to four independent measurements
T1 construct: purchased Inspiralis (Norwich, UK)
T1 sequence (P0AES4 whole entry, one chain of several): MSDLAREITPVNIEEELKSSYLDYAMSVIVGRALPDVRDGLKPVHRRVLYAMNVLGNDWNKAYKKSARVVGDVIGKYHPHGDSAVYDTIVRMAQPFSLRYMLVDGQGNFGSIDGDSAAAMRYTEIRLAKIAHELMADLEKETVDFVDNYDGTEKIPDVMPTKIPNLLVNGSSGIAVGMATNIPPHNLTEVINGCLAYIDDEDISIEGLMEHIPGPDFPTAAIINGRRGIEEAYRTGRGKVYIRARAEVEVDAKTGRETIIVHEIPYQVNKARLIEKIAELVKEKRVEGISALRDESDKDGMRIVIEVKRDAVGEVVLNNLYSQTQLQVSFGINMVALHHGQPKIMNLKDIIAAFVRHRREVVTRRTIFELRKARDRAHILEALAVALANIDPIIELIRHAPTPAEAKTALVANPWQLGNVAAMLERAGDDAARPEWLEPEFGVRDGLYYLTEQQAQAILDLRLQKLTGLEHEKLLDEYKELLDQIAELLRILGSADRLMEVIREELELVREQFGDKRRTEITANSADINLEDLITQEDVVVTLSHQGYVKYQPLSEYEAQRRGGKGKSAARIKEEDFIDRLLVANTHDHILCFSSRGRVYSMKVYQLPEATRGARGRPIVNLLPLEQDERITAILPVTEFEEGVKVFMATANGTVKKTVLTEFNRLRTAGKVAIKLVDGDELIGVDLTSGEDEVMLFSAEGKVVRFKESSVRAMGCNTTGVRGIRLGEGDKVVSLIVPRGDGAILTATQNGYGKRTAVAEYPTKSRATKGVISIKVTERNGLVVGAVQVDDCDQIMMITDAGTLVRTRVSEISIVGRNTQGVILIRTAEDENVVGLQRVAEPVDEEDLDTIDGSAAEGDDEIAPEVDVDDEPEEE

Chain of Staphylococcus aureus DNA gyrase (P20831 whole entry): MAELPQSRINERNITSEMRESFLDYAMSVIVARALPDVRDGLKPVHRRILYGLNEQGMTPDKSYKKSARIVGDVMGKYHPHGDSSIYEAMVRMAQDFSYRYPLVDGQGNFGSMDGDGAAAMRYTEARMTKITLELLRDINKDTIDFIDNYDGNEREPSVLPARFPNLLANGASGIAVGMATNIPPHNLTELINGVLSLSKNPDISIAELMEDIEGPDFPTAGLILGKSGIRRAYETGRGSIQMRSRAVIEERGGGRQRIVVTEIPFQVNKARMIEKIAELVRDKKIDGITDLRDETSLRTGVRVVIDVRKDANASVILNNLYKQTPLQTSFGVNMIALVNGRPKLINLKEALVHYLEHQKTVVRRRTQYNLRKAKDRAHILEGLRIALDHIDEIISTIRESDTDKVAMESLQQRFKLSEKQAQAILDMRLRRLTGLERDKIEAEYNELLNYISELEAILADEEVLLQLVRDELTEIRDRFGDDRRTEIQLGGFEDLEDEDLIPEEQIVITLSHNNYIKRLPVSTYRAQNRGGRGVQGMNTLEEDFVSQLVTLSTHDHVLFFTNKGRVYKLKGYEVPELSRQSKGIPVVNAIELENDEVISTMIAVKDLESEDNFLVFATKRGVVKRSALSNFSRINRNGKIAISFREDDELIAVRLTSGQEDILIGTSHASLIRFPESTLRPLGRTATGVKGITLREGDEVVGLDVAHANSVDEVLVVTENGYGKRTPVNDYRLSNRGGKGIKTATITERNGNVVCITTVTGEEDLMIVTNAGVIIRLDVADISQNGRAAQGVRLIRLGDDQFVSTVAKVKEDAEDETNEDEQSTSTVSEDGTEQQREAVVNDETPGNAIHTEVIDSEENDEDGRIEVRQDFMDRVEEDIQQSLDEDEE
Chain of Staphylococcus aureus DNA gyrase (P0A0K8 whole entry): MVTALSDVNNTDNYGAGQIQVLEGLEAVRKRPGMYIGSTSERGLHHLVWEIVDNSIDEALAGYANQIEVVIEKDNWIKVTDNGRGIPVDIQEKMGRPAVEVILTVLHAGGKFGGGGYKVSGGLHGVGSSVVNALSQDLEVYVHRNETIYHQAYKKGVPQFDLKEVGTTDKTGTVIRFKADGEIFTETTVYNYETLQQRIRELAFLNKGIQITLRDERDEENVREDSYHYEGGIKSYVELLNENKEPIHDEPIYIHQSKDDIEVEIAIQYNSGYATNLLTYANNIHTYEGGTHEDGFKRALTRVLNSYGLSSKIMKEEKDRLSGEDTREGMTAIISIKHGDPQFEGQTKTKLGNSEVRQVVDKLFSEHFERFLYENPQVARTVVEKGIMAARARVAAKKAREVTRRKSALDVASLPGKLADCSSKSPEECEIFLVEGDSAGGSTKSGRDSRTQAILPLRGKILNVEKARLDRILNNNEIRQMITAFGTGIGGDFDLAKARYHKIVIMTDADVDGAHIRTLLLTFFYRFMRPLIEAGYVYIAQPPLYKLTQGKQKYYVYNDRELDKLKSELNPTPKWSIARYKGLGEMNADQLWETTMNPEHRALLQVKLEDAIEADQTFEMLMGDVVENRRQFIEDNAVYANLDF

| SMILES | IC50 [1] [nM] | mean percentage of metabolic activity of treated cells, HUVEC 1 μM [2] [%] | mean percentage of metabolic activity of treated cells, HUVEC 50 μM [2] [%] | mean percentage of metabolic activity of treated cells, HepG2 1 μM [3] [%] | mean percentage of metabolic activity of treated cells, HepG2 50 μM [3] [%] | MIC [4] [µg/mL] | MIC [5] [µg/mL] | MIC [6] [µg/mL] | MIC [7] [µg/mL] | MIC [8] [µg/mL] | MIC [9] [µg/mL] | MIC [10] [µg/mL] | MIC [11] [µg/mL] | MIC [12] [µg/mL] | MIC [13] [µg/mL] | MIC [14] [µg/mL] | IC50 [15] [nM] |
| --- | --- | --- | --- | --- | --- | --- | --- | --- | --- | --- | --- | --- | --- | --- | --- | --- | --- |
| COc1ccc2nccc(CCN3CCC(NCc4ccc(Br)cc4)CC3)c2n1 [Compound C7, N-(4-bromobenzyl)-1-(2-(6-methoxy-1,5-naphthyridin-4-yl)ethyl)piperidin-4-amine] | 7 | 92.0 ± 4.5 | −0.5 ± 0.2 | 84.3 ± 8.9 | −0.1 ± 0.3 | 1 (≈ 2.2 µM) | 0.062 (≈ 0.136 µM) | 0.062 (≈ 0.136 µM) | 0.031 (≈ 0.0681 µM) | 128 (≈ 281 µM) | 0.062 (≈ 0.136 µM) | 0.125 (≈ 0.274 µM) | 0.062 (≈ 0.136 µM) | ≤ 0.0078 | 0.5 (≈ 1.1 µM) |  |  |
| COc1ccc2nccc(CCN3CCC(NCc4ccc(I)cc4)CC3)c2n1 [Compound C8, N-(4-iodobenzyl)-1-(2-(6-methoxy-1,5-naphthyridin-4-yl)ethyl)piperidin-4-amine] | 11 | 108.0 ± 6.6 | −0.3 ± 0.5 | 102.6 ± 2.3 | 0.5 ± 0.3 | 1 (≈ 1.99 µM) | 0.15 (≈ 0.299 µM) | 0.0078 (≈ 0.0155 µM) | ≤ 0.0078 | 32 (≈ 63.7 µM) | 0.015 (≈ 0.0299 µM) | 0.062 (≈ 0.123 µM) | 0.015 (≈ 0.0299 µM) | 0.002 (≈ 0.00398 µM) | 0.015 (≈ 0.0299 µM) | 0.015 (≈ 0.0299 µM) |  |
| COc1ccc2nccc(CCN3CCC(NCc4ccc(OC(F)F)c(OC)c4)CC3)c2n1 [Compound C9, N-(4-(difluoromethoxy)-3-methoxybenzyl)-1-(2-(6-methoxy-1,5-naphthyridin-4-yl)ethyl)piperidin-4-amine] | 350 | 89.6 ± 3.8 | 0.2 ± 1.0 | 89.7 ± 3.8 | −0.3 ± 2.1 | 16 (≈ 33.9 µM) | 2 (≈ 4.23 µM) | 2 (≈ 4.23 µM) | 2 (≈ 4.23 µM) | > 128 | 2 (≈ 4.23 µM) | 4 (≈ 8.46 µM) | 2 (≈ 4.23 µM) | 0.125 (≈ 0.265 µM) | 2 (≈ 4.23 µM) |  | 3900 |
| COc1ccc2nccc(CCN3CCC(NCc4ccc(OC(F)F)c(O)c4)CC3)c2n1 [Compound C10, 2-(difluoromethoxy)-5-((1-(2-(6-methoxy-1,5-naphthyridin-4-yl)ethyl)piperidin-4-ylamino)methyl)phenol] | 330 | 96.4 ± 9.1 | 2.5 ± 0.3 | 100.5 ± 4.8 | −0.4 ± 1.6 | 4 (≈ 8.72 µM) | 0.5 (≈ 1.09 µM) | 0.25 (≈ 0.545 µM) | 0.25 (≈ 0.545 µM) | > 128 | 0.25 (≈ 0.545 µM) | 2 (≈ 4.36 µM) | 0.25 (≈ 0.545 µM) | 0.25 (≈ 0.545 µM) | 0.016 (≈ 0.0349 µM) |  | 4410 |
| C=CCn1cc(CNC2CCN(CCc3ccnc4ccc(OC)nc34)CC2)cn1 [Compound C11, N-((1-allyl-^1H-pyrazol-4-yl)methyl)-1-(2-(6-methoxy-1,5-naphthyridin-4-yl)ethyl)piperidin-4-amine] | 1100 | 88.6 ± 21.2 | 84.2 ± 19.5 | 108.5 ± 6.3 | 77.0 ± 2.4 | 8 (≈ 19.7 µM) | 2 (≈ 4.92 µM) | 2 (≈ 4.92 µM) | 1 (≈ 2.46 µM) | > 128 | 2 (≈ 4.92 µM) | 4 (≈ 9.84 µM) | < 1 | 0.125 (≈ 0.307 µM) | 8 (≈ 19.7 µM) | 2 (≈ 4.92 µM) | 16700 |
